Assay results: the NIST ThermoML archive (doi:10.1021/je034197x)
± gives the expanded uncertainty stated by the source.

Conditions: Liquid, Closed cell (Static) method

CCO [ethanol]
vapor or sublimation pressure (298.15 K): 7.916 ± 0.024 kPa
vapor or sublimation pressure (303.15 K): 10.54 ± 0.031 kPa
vapor or sublimation pressure (308.15 K): 13.84 ± 0.039 kPa
vapor or sublimation pressure (313.15 K): 17.98 ± 0.049 kPa
vapor or sublimation pressure (318.15 K): 23.17 ± 0.062 kPa
vapor or sublimation pressure (323.15 K): 29.58 ± 0.077 kPa
vapor or sublimation pressure (328.15 K): 37.46 ± 0.097 kPa
vapor or sublimation pressure (333.15 K): 46.95 ± 0.12 kPa
vapor or sublimation pressure (338.15 K): 58.58 ± 0.15 kPa
vapor or sublimation pressure (343.15 K): 72.24 ± 0.18 kPa
vapor or sublimation pressure (348.15 K): 88.66 ± 0.22 kPa

CCCO [propan-1-ol]
vapor or sublimation pressure (298.15 K): 2.88 ± 0.013 kPa
vapor or sublimation pressure (303.15 K): 3.998 ± 0.015 kPa
vapor or sublimation pressure (308.15 K): 5.374 ± 0.018 kPa
vapor or sublimation pressure (313.15 K): 7.197 ± 0.023 kPa
vapor or sublimation pressure (318.15 K): 9.568 ± 0.028 kPa
vapor or sublimation pressure (323.15 K): 12.42 ± 0.035 kPa
vapor or sublimation pressure (328.15 K): 16.14 ± 0.044 kPa
vapor or sublimation pressure (333.15 K): 20.72 ± 0.055 kPa
vapor or sublimation pressure (338.15 K): 26.41 ± 0.069 kPa
vapor or sublimation pressure (343.15 K): 33.23 ± 0.086 kPa
vapor or sublimation pressure (348.15 K): 41.63 ± 0.11 kPa
vapor or sublimation pressure (353.15 K): 51.67 ± 0.13 kPa
vapor or sublimation pressure (358.15 K): 63.69 ± 0.16 kPa
vapor or sublimation pressure (363.15 K): 77.81 ± 0.2 kPa

CCC(C)O (stereo not drawn) [butan-2-ol]
vapor or sublimation pressure (298.15 K): 2.44 ± 0.2 kPa
vapor or sublimation pressure (303.15 K): 3.373 ± 0.2 kPa
vapor or sublimation pressure (308.15 K): 4.588 ± 0.2 kPa
vapor or sublimation pressure (313.15 K): 6.234 ± 0.2 kPa
vapor or sublimation pressure (318.15 K): 8.252 ± 0.2 kPa
vapor or sublimation pressure (323.15 K): 10.86 ± 0.2 kPa
vapor or sublimation pressure (328.15 K): 14.13 ± 0.2 kPa
vapor or sublimation pressure (333.15 K): 18.34 ± 0.2 kPa
vapor or sublimation pressure (338.15 K): 23.49 ± 0.2 kPa
vapor or sublimation pressure (343.15 K): 29.71 ± 0.21 kPa
vapor or sublimation pressure (348.15 K): 37.2 ± 0.21 kPa
vapor or sublimation pressure (353.15 K): 46.36 ± 0.21 kPa
vapor or sublimation pressure (358.15 K): 57.16 ± 0.22 kPa
vapor or sublimation pressure (363.15 K): 70.24 ± 0.23 kPa

CC(C)O [propan-2-ol]
vapor or sublimation pressure (298.15 K): 5.799 ± 0.2 kPa
vapor or sublimation pressure (303.15 K): 7.859 ± 0.2 kPa
vapor or sublimation pressure (308.15 K): 10.52 ± 0.2 kPa
vapor or sublimation pressure (313.15 K): 13.94 ± 0.2 kPa
vapor or sublimation pressure (318.15 K): 18.24 ± 0.2 kPa
vapor or sublimation pressure (323.15 K): 23.64 ± 0.2 kPa
vapor or sublimation pressure (328.15 K): 30.35 ± 0.21 kPa
vapor or sublimation pressure (333.15 K): 38.59 ± 0.21 kPa
vapor or sublimation pressure (338.15 K): 48.66 ± 0.21 kPa
vapor or sublimation pressure (343.15 K): 60.66 ± 0.22 kPa
vapor or sublimation pressure (348.15 K): 75.22 ± 0.23 kPa
vapor or sublimation pressure (353.15 K): 92.44 ± 0.24 kPa

CO [methanol]
vapor or sublimation pressure (298.15 K): 16.95 ± 0.046 kPa
vapor or sublimation pressure (303.15 K): 21.88 ± 0.058 kPa
vapor or sublimation pressure (308.15 K): 27.98 ± 0.073 kPa
vapor or sublimation pressure (313.15 K): 35.51 ± 0.092 kPa
vapor or sublimation pressure (318.15 K): 44.59 ± 0.11 kPa
vapor or sublimation pressure (323.15 K): 55.65 ± 0.14 kPa
vapor or sublimation pressure (328.15 K): 68.94 ± 0.17 kPa
vapor or sublimation pressure (333.15 K): 84.62 ± 0.21 kPa

CCCCO [butan-1-ol]
vapor or sublimation pressure (298.15 K): 1.003 ± 0.2 kPa
vapor or sublimation pressure (303.15 K): 1.317 ± 0.2 kPa
vapor or sublimation pressure (308.15 K): 1.841 ± 0.2 kPa
vapor or sublimation pressure (313.15 K): 2.544 ± 0.2 kPa
vapor or sublimation pressure (318.15 K): 3.453 ± 0.2 kPa
vapor or sublimation pressure (323.15 K): 4.648 ± 0.2 kPa
vapor or sublimation pressure (328.15 K): 6.171 ± 0.2 kPa
vapor or sublimation pressure (333.15 K): 8.103 ± 0.2 kPa
vapor or sublimation pressure (338.15 K): 10.56 ± 0.2 kPa
vapor or sublimation pressure (343.15 K): 13.6 ± 0.2 kPa
vapor or sublimation pressure (348.15 K): 17.37 ± 0.2 kPa
vapor or sublimation pressure (353.15 K): 21.98 ± 0.2 kPa
vapor or sublimation pressure (358.15 K): 27.65 ± 0.2 kPa
vapor or sublimation pressure (363.15 K): 34.41 ± 0.21 kPa
